Laboratory results reported in article PMC10439230 (Scientific Reports, 2023).

What was measured:
[1] = test system: MOLT-3 (T cell acute lymphoblastic leukemia); assay: Cytotoxic activity assay (XTT); type: cell-based, human; details: for IC50: Homo sapiens, MOLT-3, 48 h exposure, XTT, read-out: Cell lines, IC50 (μM) MOLT-3; for Selectivity Index (SI) values MOLT-3: SI = IC50 normal cell (MRC-5)/ IC50 cancer cell
Excerpt: (§1) The synthetic compounds were screened for their cytotoxic activity using standard MTT or XTT methods[30] against a panel of nine human cancer cell lines and one normal cell line, including MDA-MB-231 (triple-negative breast cancer), T-47D (hormone-dependent breast cancer), HepG2 (hepatocellular carcinoma), A549 (lung adenocarcinoma), H69AR (multidrug-resistant small cell lung carcinoma), HuCCA-1 (cholangiocarcinoma derived from a patient), HeLa (cervical carcinoma), and two leukemia cell lines, HL-60 (acute promyelocytic leukemia) and MOLT-3 (T cell acute lymphoblastic leukemia). MRC-5 normal embryonic lung fibroblast cell line was used to represent normal cells. Chemotherapeutic drugs, doxorubicin and etoposide, were used as positive controls.
(§2) The cells were seeded into 96-well plates (100 µL for adherent cells and 75 µL for suspended cells) at a density of 5000–20,000 cells per well, depending on their growth rates. Adherent and suspended cells were then allowed to grow at 37 °C with 95% humidity and 5% CO2 for 24 h and 30 min, respectively. The cytotoxicity assay was initiated by adding an equal volume of cell culture medium containing tested compound at predetermined concentrations. Following 48 h of exposure, cell viability was determined using MTT assay for adherent cells[51],[52]or XTT assay for suspeended cells. Briefly, for adherent cells, 100 µL of the MTT reagent was added to each well, and the microtiter plates were further incubated for 2.5–4 h. The medium was subsequently replaced with 100 µL of DMSO to dissolve the purple formazan before the absorbance at 550 nm was measured using a microplate reader (a SpectraMax Plus 384) with a reference wavelength of 650 nm. For suspended cells, 75 µL of the XTT reagent was added to each well, and the cells were further incubated for 4 h. Afterwards, the absorbance of orange formazan at 492 nm was measured with a reference wavelength of 690 nm using a microplate reader.

[2] = test system: HL-60 (acute promyelocytic leukemia); assay: Cytotoxic activity assay (XTT); type: cell-based, human; details: for IC50: Homo sapiens, HL-60, 48 h exposure, XTT, read-out: Cell lines, IC50 (μM) HL-60; for Selectivity Index (SI) values HL-60: SI = IC50 normal cell (MRC-5)/ IC50 cancer cell
Excerpt: as §1, §2

[3] = test system: MRC-5 normal embryonic lung fibroblast cell line; assay: Cytotoxic activity assay (MTT), normal cells; type: cell-based; details: Homo sapiens, MRC5, 48 h exposure, read-out: Cell lines, IC50 (μM) MRC-5
Excerpt: as §1, §2

[4] = test system: H69AR (multidrug-resistant small cell lung carcinoma); assay: Cytotoxic activity assay (MTT); type: cell-based, human; details: for IC50: Homo sapiens, H69AR, 48 h exposure, MTT, read-out: Cell lines, IC50 (μM) H69AR; for Selectivity Index (SI) values H69AR: SI = IC50 normal cell (MRC-5)/ IC50 cancer cell
Excerpt: as §1, §2

[5] = test system: MDA-MB-231 (triple-negative breast cancer); assay: Cytotoxic activity assay (MTT); type: cell-based, human; details: for IC50: Homo sapiens, MDA-MB-231, 48 h exposure, MTT, read-out: Cell lines, IC50 (μM) MDA-MB-231; for Selectivity Index (SI) values MDA-MB-231: SI = IC50 normal cell (MRC-5)/ IC50 cancer cell
Excerpt: as §1, §2

[6] = test system: HepG2 (hepatocellular carcinoma); assay: Cytotoxic activity assay (MTT); type: cell-based, human; details: for IC50: Homo sapiens, HepG2, 48 h exposure, MTT, read-out: Cell lines, IC50 (μM) HepG2; for Selectivity Index (SI) values HepG2: SI = IC50 normal cell (MRC-5)/ IC50 cancer cell
Excerpt: as §1, §2

[7] = test system: T-47D (hormone-dependent breast cancer); assay: Cytotoxic activity assay (MTT); type: cell-based, human; details: for IC50: Homo sapiens, T47D, 48 h exposure, MTT, read-out: Cell lines, IC50 (μM) T47-D; for Selectivity Index (SI) values T47-D: SI = IC50 normal cell (MRC-5)/ IC50 cancer cell
Excerpt: as §1, §2

[8] = test system: A549 (lung adenocarcinoma); assay: Cytotoxic activity assay (MTT); type: cell-based, human; details: for IC50: Homo sapiens, A549, 48 h exposure, MTT, read-out: Cell lines, IC50 (μM) A549; for Selectivity Index (SI) values A549: SI = IC50 normal cell (MRC-5)/ IC50 cancer cell
Excerpt: as §1, §2

[9] = test system: HuCCA-1 (cholangiocarcinoma derived from a patient); assay: Cytotoxic activity assay (MTT); type: cell-based, human; details: for IC50: Homo sapiens, HuCC-A1, 48 h exposure, MTT, read-out: Cell lines, IC50 (μM) HuCCA-1; for Selectivity Index (SI) values HuCCA-1: SI = IC50 normal cell (MRC-5)/ IC50 cancer cell
Excerpt: as §1, §2

[10] = test system: HeLa (cervical carcinoma); assay: Cytotoxic activity assay (MTT); type: cell-based, human; details: for IC50: Homo sapiens, 48 h exposure, MTT, read-out: Cell lines, IC50 (μM) HeLa; for Selectivity Index (SI) values HeLa: SI = IC50 normal cell (MRC-5)/ IC50 cancer cell
Excerpt: as §1, §2

SMILES: C=C1CC[C@H]2C(C)(C)CCC[C@]2(C)[C@H]1CC/C(C)=C/C(=O)NOC [Compound 4i, (E)-N-Methoxy-3-methyl-5-((1S,4aS,8aS)-5,5,8a-trimethyl-2-methylene-decahydronaphthalen-1-yl)pent-2-enamide]
- IC50 [1]: 21.4 ± 1.29 µM
- Selectivity Index (SI) values MOLT-3 [1]: 2.5
- IC50 [2]: 24.9 ± 0.45 µM
- Selectivity Index (SI) values HL-60 [2]: 2.1
- IC50 [3]: 52.68 ± 0.03 µM
- IC50 [4]: 96.91 ± 0.46 µM
- Selectivity Index (SI) values H69AR [4]: 0.5
- IC50 [5]: 45 ± 0.86 µM
- Selectivity Index (SI) values MDA-MB-231 [5]: 1.2
- IC50 [6]: 44.26 ± 0.4 µM
- Selectivity Index (SI) values HepG2 [6]: 1.2
- IC50 [7]: 41.3 ± 1.61 µM
- Selectivity Index (SI) values T47-D [7]: 1.3
- IC50 [8]: 45.7 ± 0.63 µM
- Selectivity Index (SI) values A549 [8]: 1.2
- IC50 [9]: 49.8 ± 0.18 µM
- Selectivity Index (SI) values HuCCA-1 [9]: 1.1
- IC50 [10]: 53.8 ± 0.83 µM
- Selectivity Index (SI) values HeLa [10]: 1.0

SMILES: C=C1CC[C@H]2C(C)(C)CCC[C@]2(C)[C@H]1CC/C(C)=C/C(=O)NO [Compound 4j, (E)-N-Hydroxy-3-methyl-5-((1S,4aS,8aS)-5,5,8a-trimethyl-2-methylene-decahydronaphthalen-1-yl)pent-2-enamide]
- IC50 [1]: > 120 µM
- Selectivity Index (SI) values MOLT-3 [1]: 1.0
- IC50 [2]: > 120 µM
- Selectivity Index (SI) values HL-60 [2]: 1.0
- IC50 [3]: > 120 µM
- IC50 [4]: > 120 µM
- Selectivity Index (SI) values H69AR [4]: 1.0
- IC50 [5]: > 120 µM
- Selectivity Index (SI) values MDA-MB-231 [5]: 1.0
- IC50 [6]: > 120 µM
- Selectivity Index (SI) values HepG2 [6]: 1.0
- IC50 [7]: > 120 µM
- Selectivity Index (SI) values T47-D [7]: 1.0
- IC50 [8]: > 120 µM
- Selectivity Index (SI) values A549 [8]: 1.0
- IC50 [9]: > 120 µM
- Selectivity Index (SI) values HuCCA-1 [9]: 1.0
- IC50 [10]: > 120 µM
- Selectivity Index (SI) values HeLa [10]: 1.0

SMILES: C=C1CC[C@H]2C(C)(C)CCC[C@]2(C)[C@H]1CC/C(C)=C/C(=O)NN [Compound 4k, (E)-3-Methyl-5-((1S,4aS,8aS)-5,5,8a-trimethyl-2-methylenedecahydro-naphthalen-1-yl)pent-2-enehydrazide]
- IC50 [1]: 29.3 ± 2.43 µM
- Selectivity Index (SI) values MOLT-3 [1]: 5.0
- IC50 [2]: 108 ± 1.53 µM
- Selectivity Index (SI) values HL-60 [2]: 1.4
- IC50 [3]: 145.8 ± 0.34 µM
- IC50 [4]: > 120 µM
- Selectivity Index (SI) values H69AR [4]: 0.9
- IC50 [5]: 98.5 ± 3.01 µM
- Selectivity Index (SI) values MDA-MB-231 [5]: 1.5
- IC50 [6]: > 120 µM
- Selectivity Index (SI) values HepG2 [6]: 0.9
- IC50 [7]: > 120 µM
- Selectivity Index (SI) values T47-D [7]: 0.9
- IC50 [8]: > 120 µM
- Selectivity Index (SI) values A549 [8]: 0.9
- IC50 [9]: 130 ± 2 µM
- Selectivity Index (SI) values HuCCA-1 [9]: 1.1
- IC50 [10]: 118.78 ± 0.06 µM
- Selectivity Index (SI) values HeLa [10]: 1.2

SMILES: C=C1CC[C@H]2C(C)(C)CCC[C@]2(C)[C@H]1CC/C(C)=C/C(=O)N(C)C [Compound 4m, (E)-N,N,3-Trimethyl-5-((1S,4aS,8aS)-5,5,8a-trimethyl-2-methylenedecahydro-naphthalen-1-yl)pent-2-enamide]
- IC50 [1]: 21.3 ± 0.47 µM
- Selectivity Index (SI) values MOLT-3 [1]: 1.9
- IC50 [2]: 19.4 ± 0.84 µM
- Selectivity Index (SI) values HL-60 [2]: 2.1
- IC50 [3]: 40.8 ± 0.56 µM
- IC50 [4]: 99.97 ± 0.74 µM
- Selectivity Index (SI) values H69AR [4]: 0.4
- IC50 [5]: 32.1 ± 1.68 µM
- Selectivity Index (SI) values MDA-MB-231 [5]: 1.3
- IC50 [6]: 52.1 ± 2.82 µM
- Selectivity Index (SI) values HepG2 [6]: 0.8
- IC50 [7]: 42.6 ± 1.08 µM
- Selectivity Index (SI) values T47-D [7]: 1.0
- IC50 [8]: 51.82 ± 0.25 µM
- Selectivity Index (SI) values A549 [8]: 0.8
- IC50 [9]: 44.31 ± 0.42 µM
- Selectivity Index (SI) values HuCCA-1 [9]: 0.9
- IC50 [10]: 40.1 ± 0.68 µM
- Selectivity Index (SI) values HeLa [10]: 1.0

SMILES: C=C1CC[C@H]2C(C)(C)CCC[C@]2(C)[C@H]1CC/C(C)=C/C(=O)N1CCCCC1 [Compound 4n, (E)-3-Methyl-1-(piperidin-1-yl)-5-((1S,4aS,8aS)-5,5,8a-trimethyl-2-methylenedecahydronaphthalen-1-yl)pent-2-en-1-one]
- IC50 [1]: 21 ± 0.32 µM
- Selectivity Index (SI) values MOLT-3 [1]: 1.8
- IC50 [2]: 20.5 ± 0.5 µM
- Selectivity Index (SI) values HL-60 [2]: 1.9
- IC50 [3]: 38.4 ± 1.2 µM
- IC50 [4]: 52.31 ± 0.42 µM
- Selectivity Index (SI) values H69AR [4]: 0.7
- IC50 [5]: 33.9 ± 1.93 µM
- Selectivity Index (SI) values MDA-MB-231 [5]: 1.1
- IC50 [6]: 32.2 ± 1.37 µM
- Selectivity Index (SI) values HepG2 [6]: 1.2
- IC50 [7]: 73 ± 3.31 µM
- Selectivity Index (SI) values T47-D [7]: 0.5
- IC50 [8]: 41.7 ± 1.43 µM
- Selectivity Index (SI) values A549 [8]: 0.9
- IC50 [9]: 41.25 ± 0.19 µM
- Selectivity Index (SI) values HuCCA-1 [9]: 0.9
- IC50 [10]: 38.91 ± 0.13 µM
- Selectivity Index (SI) values HeLa [10]: 1.0

SMILES: C=C1CC[C@H]2C(C)(C)CCC[C@]2(C)[C@H]1CC/C(C)=C/C(=O)N(C)OC [Compound 4o, (E)-N-Methoxy-N,3-dimethyl-5-((1S,4aS,8aS)-5,5,8a-trimethyl-2-methylene-decahydronaphthalen-1-yl)pent-2-enamide]
- IC50 [1]: 29.8 ± 1.89 µM
- Selectivity Index (SI) values MOLT-3 [1]: 1.6
- IC50 [2]: 27.9 ± 1.99 µM
- Selectivity Index (SI) values HL-60 [2]: 1.7
- IC50 [3]: 47.2 ± 0.96 µM
- IC50 [4]: 115.1 ± 0.64 µM
- Selectivity Index (SI) values H69AR [4]: 0.4
- IC50 [5]: 38.8 ± 0.44 µM
- Selectivity Index (SI) values MDA-MB-231 [5]: 1.2
- IC50 [6]: 57.3 ± 1.82 µM
- Selectivity Index (SI) values HepG2 [6]: 0.8
- IC50 [7]: 46.4 ± 1.73 µM
- Selectivity Index (SI) values T47-D [7]: 1.0
- IC50 [8]: 82.4 ± 0.99 µM
- Selectivity Index (SI) values A549 [8]: 0.6
- IC50 [9]: 54.3 ± 1.18 µM
- Selectivity Index (SI) values HuCCA-1 [9]: 0.9
- IC50 [10]: 52.86 ± 0.02 µM
- Selectivity Index (SI) values HeLa [10]: 0.9
